# Key:
# lipoprotein lipase (LPL) = target: T1, lipoprotein lipase (LPL) (Mus musculus, UniProt P11152); assay: Inhibition of LPL (lipogenesis assay), MUF oleate hydrolysis; format: biochemical; settings: LPL obtained from differentiated 3T3-L1 cells; mean values of at least 2 independent tests
# T1 construct: endogenous in cells; host or cells: differentiated 3T3-L1 cells (mouse); heparin-released supernatant
# T1 sequence (P11152 28-474): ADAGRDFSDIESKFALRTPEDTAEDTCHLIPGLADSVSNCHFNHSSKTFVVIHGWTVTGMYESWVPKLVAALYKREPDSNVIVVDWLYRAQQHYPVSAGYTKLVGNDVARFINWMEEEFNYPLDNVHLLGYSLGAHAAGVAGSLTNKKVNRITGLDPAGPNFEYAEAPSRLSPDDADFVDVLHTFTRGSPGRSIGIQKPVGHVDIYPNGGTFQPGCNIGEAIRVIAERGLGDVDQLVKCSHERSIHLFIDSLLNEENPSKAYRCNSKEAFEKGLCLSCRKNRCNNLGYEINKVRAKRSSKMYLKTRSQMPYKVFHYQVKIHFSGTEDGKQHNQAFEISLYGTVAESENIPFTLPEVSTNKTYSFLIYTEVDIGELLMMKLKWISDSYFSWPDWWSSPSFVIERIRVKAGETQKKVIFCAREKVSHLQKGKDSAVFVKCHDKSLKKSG
# From the text: Lipogenesis is perceived as the storage of triglycerides in adipocytes. The inhibition of this storage can take place by means of the inhibition of the activity of extracellular lipoprotein lipase (LPL) in that the hydrolysis of extracellular triglycerides and therefore the absorption of free fatty acids by adipocytes are reduced. As a preliminary test, the inhibition of pancreatic lipase (PL) is investigated.
# The results of the inhibition of the PL are used as a preliminary test and are confirmed on LPL. To obtain LPL, 3T3-L1 cells (mouse embryonic fibroblast-like adipocyte cell line) are seeded in a 6-well plate with collagen I-coating in a concentration of 3×10^5 cells/well. The cultivation and differentiation of the cells takes place analogously to the details in Example 2 (adipogenesis assay). During the differentiation LPL is increasingly expressed. The LPL is present in a membrane-bound state and is released by one hour incubation with heparin solution at 2-8° C. to the supernatant of the cells.
# The LPL thus obtained, in the presence of test substances in different use concentrations, has methylumbelliferyl oleate (MUF oleate) added as the substrate. Fluorescent methylumbelliferyl (MUF) is produced by hydrolysis of the MUF oleate by LPL and is quantified. The inhibition of the hydrolysis of the MUF oleate is a measure of the inhibition of the activity of the LPL and therefore the lipogenesis.
# [formula] wherein MUF test substance=MUF concentration of the wells with test substance and with LPL MUF control=MUF concentration of the wells without test substance, but with LPL MUF control without LPL=MUF concentration of the wells without test substance and without LPL
# The IC50 is calculated from the inhibition of the LPL [%] in a series of dilutions of tested samples. This is the concentration at which the activity of the LPL and therefore the lipogenesis is 50% inhibited.
# 3T3-L1 cells [1] = assay: Adipogenesis assay (in vitro), Nile Red lipid staining; format: cell-based; settings: Mus musculus, mean values of at least 2 independent tests, read-out: Adipogenesis inhibition IC50
# Procedure: 3T3-L1 cells (mouse embryonic fibroblast-like adipocyte cell line) are seeded in a 48-well plate with collagen I-coating in a concentration of 3×10^4 cells/well. After 72 h cultivation at 37° C. and 5% CO2 in DMEM (Dulbecco's Modified Eagle Medium), enriched with 10% calf serum, various concentrations of the test substances in DMEM, enriched with 10% foetal calf serum and to which are added 1 μg/ml insulin, 0.25 μM dexamethasone and 0.5 mM IBMX (3-isobutyl-1-methylxanthine), are added and incubated for a further 48 h. A media change takes place, in that DMEM, enriched with 10% foetal calf serum and with 1 μg/ml insulin added, are applied. After renewed cultivation for 48 h, a further media change takes place, in which DMEM, enriched with 10% foetal calf serum, is applied.
# After a further incubation for 72 h, the intracellularly stored lipids are quantified as a measure for the differentiation of the cells by measuring the fluorescence after staining of the lipids with the fluorescent dye Nile Red.
# The inhibition of the adipogenesis in the presence of the test substances is calculated according to the following equation:
# [formula] wherein RFU test substance=relative fluorescent units of the wells with test substance and with cells RFU control=relative fluorescent units of the wells without test substance, but with cells RFU control without cells=relative fluorescent units of the wells without test substance and without cells The IC50 is calculated from the adipogenesis inhibition [%] in a series of dilutions of tested samples. This is the concentration at which the adipogenesis is 50% inhibited.
# 3T3-L1 cells [2] = assay: Lipolysis assay, in vitro on 3T3-L1 cells, free glycerol release; format: cell-based; settings: Mus musculus; differentiated 3T3-L1 cells, about 20 hours of incubation; mean values from at least 2 independent tests; read-out: Stimulation of lipolysis EC50
# Procedure: 3T3-L1 cells (mouse embryonic fibroblast-like adipocyte cell line) are seeded in a 48-well plate with collagen I-coating in a concentration of 3×10^4 cells/well. The cultivation and differentiation of the cells takes place analogously to the details in Example 2 (adipogenesis assay).
# Various concentrations of the test substances are applied to the cells in DMEM, with bovine serum albumen added. After about 20 hours of incubation, the quantification of free glycerol in the supernatant of the cells takes place, which is released by the cells after hydrolysis of triglycerides in the cells and is a measure of the lipolysis of the cells. The quantification of the free glycerol is carried out based on an enzymatic method with a free glycerol reagent.
# The stimulation of the lipolysis in the presence of test substances is calculated according to the following equation:
# [formula] wherein A test substance=absorption of the wells with test substance and with cells A test substance without cells=absorption of the wells with test substance without cells (absorption control) A control=absorption of the wells without test substance, but with cells A control without cells=absorption of the wells without test substance and without cells
# The EC50 is calculated from the lipolysis stimulation [%] in a series of dilutions of tested samples. This is the concentration at which the lipolysis is 50% stimulated.
IC50 (lipoprotein lipase (LPL)) [µM],SMILES,IC50 (3T3-L1 cells [1]) [µM],EC50 (3T3-L1 cells [2]) [µM]
610,"CCCCNC(=O)OC1C(C)CCC(C)C1C (stereo not drawn) [BIO1617, Butyl-carbamic acid 2,3,6-trimethyl-cyclohexyl ester]",79,980
1200,"CCCCNC(=O)OC1CCCCC1C(C)C (stereo not drawn) [BIO1841, Butyl-carbamic acid 2-isopropyl-cyclohexyl ester]",59,230
1440,"CCC(C)NC(=O)OC1CCCC(C)C1C (stereo not drawn) [BIO1845, sec-Butyl-carbamic acid 2,3-dimethyl-cyclohexyl ester]",96,190
